Experiments:
[1] = Precipitation / stability and solubility of drug in composite aqueous solution; assay type: physicochemical; conditions: drug not loaded in nanoparticles
Protocol: An aqueous solution was prepared by mixing 2 g of Pluronic F-127, 0.1 g of naproxen and 50 mg of sodium hyaluronate with 10 ml of distilled water, thereby preparing a polymer composite aqueous solution in which naproxen was dispersed.
An aqueous solution was prepared by mixing 1.6 g of Pluronic F-127, 0.4 g of Pluronic F-68, 50 mg of doxorubicin and 75 mg of docetaxel with 10 ml of distilled water, thereby preparing a polymer composite aqueous solution in which doxorubicin and docetaxel were dispersed.

[2] = Release pattern of drug from composite (dialysis bag in PBS pH 7.4, HPLC); assay type: physicochemical; conditions: at body temperature (37° C.) versus room temperature; PBS pH 7.4, dialysis bag
Protocol: To confirm the release pattern of a drug from the temperature-sensitive composite in the present invention, an experiment was carried out as follows. 20 mg of each of the temperature-sensitive composites from Examples 1, 2 and 3, and the temperature-sensitive polymer composites from Comparative Examples 1, 2 and 3 was put into a dialysis bag (filtration molecular weight cut-off—100,000), and then immersed in 20 ml of a phosphate buffer solution (PBS, pH 7.4). The temperature was maintained at 25° C. and 37.5° C. with stirring at 600 rpm. At predetermined time, 5 ml of the phosphate buffer solution was withdrawn to measure an amount of the released drug through HPLC. After sampling, the remaining phosphate buffer solution was completely removed, and a fresh phosphate buffer solution was added.

Row | Compound | precipitation in the polymer composite [1] | release of the drug [2]
1 | CC(=O)O[C@@]12CO[C@@H]1C[C@H](O)[C@@]1(C)C(=O)[C@H](O)C3=C(C)[C@@H](OC(=O)[C@H](O)[C@@H](NC(=O)OC(C)(C)C)c4ccccc4)C[C@@](O)([C@@H](OC(=O)c4ccccc4)[C@H]21)C3(C)C [docetaxel] | precipitated | 
2 | COc1ccc2cc([C@H](C)C(=O)O)ccc2c1 [naproxen] | precipitated | 
3 | CCCCN1CCCCC1C(=O)Nc1c(C)cccc1C (stereo not shown) [bupivacaine] |  | decreased
4 | COc1cccc2c1C(=O)c1c(O)c3c(c(O)c1C2=O)C[C@@](O)(C(=O)CO)C[C@@H]3O[C@H]1C[C@H](N)[C@H](O)[C@H](C)O1 [doxorubicin] |  | decreased

Source: US10744092B2, “Temperature-sensitive composite and method for preparing same” (KOREA UNIVERSITY RESEARCH AND BUSINESS FOUNDATION, SEJONG …, priority 2016, dated 2020)
